Source: patent US6784204B2, “Antibiotic cytosporacin” (Wyeth Holdings Corporation, Five Giralda Farms, priority 2002, dated 2004)
Converted amounts (≈) assume the structure as drawn.

Assays:
Experiment in all cases: MIC by broth dilution method
Format in all cases: cell-based
[1] = tested on: Candida albicans 54 (CA300); conditions: 18 hours at 35° C.
Experimental: (§1) The minimum inhibitory concentration (MIC), the lowest concentration of the antibiotic which inhibits growth of the test organism, is determined by the broth dilution method using Muller-Hinton II […] (Baltimore Biological Laboratories) following the recommendations of the National Committee for Clinical Laboratory Standards [Methods for dilution antimicrobial susceptibility tests for bacteria that grow aerobically. Approved standard M7-A2. National Committee for Clinical Laboratory Standards, Villanova, Pa].
(§2) An inoculum level of 5×10^5 CFU/ml, and a range of antibiotic concentrations (256-1.0 μg/ml) is used. The MIC is determined after the microtiter plates are incubated for 18 hours at 35° C. in an ambient air incubator. The test organisms comprise a spectrum of Gram-positive bacteria comprised of Staphylococcus sp., Enterococcus sp., Gram-negative bacterium Escherichia coli, and the yeast Candida albicans. These organisms include recent clinical isolates that are resistant to piperacillin and vancomycin.

[2] = tested on: Enterococcus faecium 379 (NC12204, vancomycin-resistant); conditions: 18 hours at 35° C.
Experimental: as §1, §2

[3] = tested on: Enterococcus faecium 436 (ID3151); conditions: 18 hours at 35° C.
Experimental: as §1, §2

[4] = tested on: Escherichia coli 389 (GC4560 imp); conditions: 18 h
Experimental: as §1, §2

[5] = tested on: Escherichia coli 442 (GC4559); conditions: 18 hours at 35° C.
Experimental: as §1, §2

[6] = tested on: Staphylococcus aureus 310 (SSC8224, methicillin-resistant); conditions: 18 hours at 35° C.
Experimental: as §1, §2

[7] = tested on: Staphylococcus aureus 375 (ATCC3538p); conditions: 18 hours at 35° C.
Experimental: as §1, §2

[8] = tested on: Bacillus subtilis 327 (BGSC-1A1); conditions: 18 hours at 35° C.

SMILES: C=C1OC(=O)c2c(cc3c(C4=C5C=C(O)C(=O)C(O)=C5C(CCCCCCC)OC4=O)c(O)cc(O)c3c2O)C1O (centres unmarked) [Cytosporacin]
- MIC [1]: > 256 µg/mL
- MIC [2]: 64 µg/mL (≈ 113 µM)
- MIC [3]: 16 µg/mL (≈ 28.3 µM)
- MIC [4]: 64 µg/mL (≈ 113 µM)
- MIC [5]: 256 µg/mL (≈ 453 µM)
- MIC [6]: 32 µg/mL (≈ 56.7 µM)
- MIC [7]: 32 µg/mL (≈ 56.7 µM)
- MIC [8]: 32 µg/mL (≈ 56.7 µM)
